These results are taken from ChEMBL document CHEMBL1143243, “Design, synthesis, evaluation, and crystallographic-based structural studies of HIV-1 protease inhibitors with reduced response to the V82A mutation” (J Med Chem, 2008).

Experiment [1] concerns the target Protease (Human immunodeficiency virus 1, UniProt Q9YQ12). Nature of the experiment: Binding affinity to HIV1 protease.
Experiment [2] deals with Human immunodeficiency virus 1. Nature of the experiment: Ratio of Ki for HIV1 protease V82A mutant to Ki for wild type HIV1 protease.
Experiment [3] has as its target Human immunodeficiency virus type 1 protease (Human immunodeficiency virus 1, UniProt Q72874, V82A). Nature of the experiment: Binding affinity to HIV1 protease V82A mutant.

pKi: −log10 of the molar value.

Chain of Protease (Q9YQ12 whole entry): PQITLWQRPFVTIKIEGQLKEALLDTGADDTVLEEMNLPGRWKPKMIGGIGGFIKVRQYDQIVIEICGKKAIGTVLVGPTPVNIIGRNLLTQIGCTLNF

Molecule `CC(C)[C@H](NC(=O)N(C)Cc1ccccn1)C(=O)N[C@@H](Cc1ccccc1)[C@H](O)[C@@H](O)[C@H](CC1CCCCC1)NC(=O)[C@@H](NC(=O)N(C)Cc1ccccn1)C(C)C` gave a pKi in experiment [1] of 8.49. Also, in experiment [2], the Ratio Ki was 4.
Turning to `CC(C)[C@H](NC(=O)N(C)Cc1ccccn1)C(=O)N[C@@H](Cc1ccccc1)[C@H](O)[C@@H](O)[C@H](Cc1ccccc1)NC(=O)[C@@H](NC(=O)N(C)Cc1ccccn1)C(C)C` [A-76928], the results for the negative-log Ki (pKi) in experiment [3] and in experiment [1] were 8.05 and 8.89, respectively. For the same molecule, the Ratio Ki in experiment [2] is 7.
`CC(C)[C@H](NC(=O)N(C)Cc1ccccn1)C(=O)N[C@@H](CC1CCCCC1)[C@H](O)[C@@H](O)[C@H](CC1CCCCC1)NC(=O)[C@@H](NC(=O)N(C)Cc1ccccn1)C(C)C`: the negative logarithm of the Ki (pKi) in experiment [3] was 7.92; in experiment [1], 8.22. Moreover, the Ratio Ki in experiment [2] amounted to 2.
